Results as given in patent US6251925A, “Therapeutic biaryl derivatives” (Glaxo Wellcome Inc., priority 1998, dated 2001).

What was measured:
Type in all cases: cell-based
[1] = molecular target: human beta-3-adrenoceptor (Homo sapiens, UniProt P13945); experiment: extracellular cAMP accumulation (agonist activity) in CHO-6CRE-luciferase cells expressing hβ3; conditions: CHO cells expressing hβ3, 60 min, 37° C.
Protocol: (§1) A particularly useful method for determining agonist activity at human atypical beta-adrenoceptors involves the use of Chinese hamster ovarian (CHO) cells transfected with the human beta-3-adrenoceptor according to Method 1.
(§2) General cell culture guidelines are observed (Fershney, R. A. (1987) Culture of animal cells: A manual of basic technique. VViley-Liss, Inc., N.Y.). A standard cell culture incubator is used (37° C., 5% CO2 in air, 95% relative humidity). H β3 CHO cells are grown in DMEM/F12 (with pyroxidine.HCl, 15 mM HEPES, L-glutamine), supplanted with 10% heat-inactivated FBS, 500 μg/ml G418, 2 mM L-glutamine, 100 units penicillin G and 100 μg streptomycin sulfate. One confluent flask of cells is trypsinised and resuspended in the above medium at a concentration of 30-40,000 cells/100 μl and plated into 96-well flat bottom plates. The cells are then used for assay within 18-24 hours.
(§3) The medium is aspirated from each well, and replaced with 180 μl DMEM/F12 with […] IBMX. Antagonists, if required, are added at this stage. The plate is then placed back in the incubator for 30 min. Drugs are then added to the wells (20 μl, 100 x required final concentration)for 60 min. Responses were determined by measuring cAMP levels of a 20 ul sample of extracellular media using a scintillation proximity based radio-immunoassay (NEN Flashplates). CHO-6CRE-iuciferase cell lines which stably express hβ3 receptors are seeded at 30,000 cells/well for 24 hr in DMEM/F12 containing 10% FBS. Media is removed from the cells and replaced with DMEM/F12 buffer (180 μl) containing […] IBMX and 1 mM ascorbic acid for 30 min prior to addition of compound. Vehicle or agonist (20 μl) is added and incubated at 37° C. for 60 minutes. At the end of the incubation period, samples of extracellular media are removed for direct assay in cAMP Flashplates (NEN).
(§4) As used herein, a compound is considered to be an agonist for hβ3if the compound stimulates the accumulation of extracellular cAMP with CHO-6CRE-luciferase cells expressing hβ3. […] The relative potency of a hβ3 agonist may be compared to its potency for stimulating the accumulation of extracellular cAMP with CHO-6CRE-luciferase cells expressing hβ2 and hβ1.

[2] = molecular target: human beta-2-adrenoceptor (Homo sapiens, UniProt P07550); experiment: extracellular cAMP accumulation in CHO-6CRE-luciferase cells expressing hβ2 (selectivity of hβ3 agonists); conditions: relative potency hβ3 vs hβ2, cAMP accumulation
human beta-2-adrenoceptor, sequence (P07550 whole entry): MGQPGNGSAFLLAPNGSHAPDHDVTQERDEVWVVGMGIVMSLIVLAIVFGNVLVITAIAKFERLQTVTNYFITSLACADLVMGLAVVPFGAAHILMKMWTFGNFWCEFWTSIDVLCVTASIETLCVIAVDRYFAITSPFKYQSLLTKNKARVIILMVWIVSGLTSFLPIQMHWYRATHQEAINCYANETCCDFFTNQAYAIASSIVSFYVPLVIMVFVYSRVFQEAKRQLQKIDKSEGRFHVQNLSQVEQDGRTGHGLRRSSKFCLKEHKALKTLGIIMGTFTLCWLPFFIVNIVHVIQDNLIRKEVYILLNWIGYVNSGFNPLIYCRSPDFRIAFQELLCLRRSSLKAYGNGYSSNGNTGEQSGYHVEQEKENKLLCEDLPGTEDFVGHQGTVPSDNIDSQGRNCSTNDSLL
Protocol: as §1, §2, §3, §4

[3] = molecular target: human beta-1-adrenoceptor (Homo sapiens, UniProt P08588); experiment: extracellular cAMP accumulation in CHO-6CRE-luciferase cells expressing hβ1 (selectivity of hβ3 agonists); conditions: relative potency hβ3 vs hβ1, cAMP accumulation
human beta-1-adrenoceptor, sequence (P08588 whole entry): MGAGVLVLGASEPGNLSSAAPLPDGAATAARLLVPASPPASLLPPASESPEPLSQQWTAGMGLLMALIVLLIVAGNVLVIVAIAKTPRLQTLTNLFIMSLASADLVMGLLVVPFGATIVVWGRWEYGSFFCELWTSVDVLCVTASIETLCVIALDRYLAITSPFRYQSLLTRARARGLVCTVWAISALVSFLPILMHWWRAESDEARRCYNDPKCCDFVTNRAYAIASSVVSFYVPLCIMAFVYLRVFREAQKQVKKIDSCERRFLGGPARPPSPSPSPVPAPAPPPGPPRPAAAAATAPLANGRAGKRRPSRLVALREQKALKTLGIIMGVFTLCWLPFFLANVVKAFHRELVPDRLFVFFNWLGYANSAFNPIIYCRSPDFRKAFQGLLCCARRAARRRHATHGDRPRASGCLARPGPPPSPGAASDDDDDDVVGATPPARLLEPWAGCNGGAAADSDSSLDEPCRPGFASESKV
Protocol: as §1, §2, §3, §4

human beta-3-adrenoceptor, sequence (P13945 whole entry): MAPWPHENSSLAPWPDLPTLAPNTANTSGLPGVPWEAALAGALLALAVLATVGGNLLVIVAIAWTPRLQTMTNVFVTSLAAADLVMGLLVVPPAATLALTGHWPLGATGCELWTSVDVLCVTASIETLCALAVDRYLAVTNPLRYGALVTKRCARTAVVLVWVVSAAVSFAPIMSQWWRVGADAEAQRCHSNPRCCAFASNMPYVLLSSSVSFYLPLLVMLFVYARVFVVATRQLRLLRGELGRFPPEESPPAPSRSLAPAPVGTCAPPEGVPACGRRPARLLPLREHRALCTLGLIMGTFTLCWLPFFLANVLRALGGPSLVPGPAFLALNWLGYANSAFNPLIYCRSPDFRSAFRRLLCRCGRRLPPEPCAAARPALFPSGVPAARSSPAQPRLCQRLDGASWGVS

C[C@H](CNc1cccc(-c2cncc(C(=O)O)c2)c1)NC[C@H](O)c1cccc(Cl)c1 [Example 21, 5-[3-[[2R-[[2-(3-Chlorophenyl)-2R-hydroxyethyl]amino]propyl]amino]phenyl]-3-pyridinecarboxylic acid]
EC50 [1]: ≤ 100 nM
times more potent at hβ3 than at hβ2 [2]: at least 100 times
times more potent at hβ3 than at hβ1 [3]: at least 100 times

Cc1ccc(C(=O)O)cc1-c1cccc(NCCNC[C@H](O)c2cccc(Cl)c2)c1 [Example 13, (R)-3'-[[2-[[2-(3-Chlorophenyl)-2-hydroxyethyl]amino]ethyl]amino]-[1,1'-biphenyl]-2-methyl-5-carboxylic acid]
times more potent at hβ3 than at hβ2 [2]: at least 100 times
times more potent at hβ3 than at hβ1 [3]: at least 100 times

O=C(O)c1ccc(-c2cccc(NCCNC[C@H](O)c3cccc(Cl)c3)c2)cc1Cl [Example 14, (R)-3'-[[2-[[2-(3-Chlorophenyl)-2-hydroxyethyl]amino]ethyl]amino]-[1,1'-biphenyl]-3-chloro-4-carboxylic acid]
EC50 [1]: ≤ 100 nM
times more potent at hβ3 than at hβ2 [2]: at least 100 times
times more potent at hβ3 than at hβ1 [3]: at least 100 times

O=C(O)c1ccc(-c2cccc(NCCNC[C@H](O)c3cccc(Cl)c3)c2)c(C(=O)O)c1 [Example 12, (R)-3'-[[2-[[2-(3-Chlorophenyl)-2-hydroxyethyl]amino]ethyl]amino]-[1,1'-biphenyl]-2,4-dicarboxylic acid]
EC50 [1]: ≤ 100 nM
times more potent at hβ3 than at hβ2 [2]: at least 100 times
times more potent at hβ3 than at hβ1 [3]: at least 100 times

COC(=O)c1cc(C(=O)O)ccc1-c1cccc(NCCNC[C@H](O)c2cccc(Cl)c2)c1 [Example 11, (R)-3'-[[2-[[2-(3-Chlorophenyl)-2-hydroxyethyl]amino]ethyl]amino]-[1,1'-biphenyl]-2,4-dicarboxylic acid 2-methyl ester]
EC50 [1]: ≤ 100 nM
times more potent at hβ3 than at hβ2 [2]: at least 100 times
times more potent at hβ3 than at hβ1 [3]: at least 100 times

O=C(O)c1cccc(-c2cccc(NCCNC[C@H](O)c3cccc(Cl)c3)c2)c1 [Example 10, (R)-3'-[[2-[[2-(3-Chlorophenyl)-2-hydroxyethyl]amino]ethyl]amino]-[1,1'-biphenyl]-3-carboxylic acid]
EC50 [1]: ≤ 1 nM
times more potent at hβ3 than at hβ2 [2]: at least 100 times
times more potent at hβ3 than at hβ1 [3]: at least 100 times

O=C(O)c1cccc(-c2cccc(NCCNC[C@H](O)c3cc(Cl)cc(Cl)c3)c2)c1 [Example 9, (R)-3'-[[2-[[2-(3,5-Dichlorophenyl)-2-hydroxyethyl]amino]ethyl]amino]-[1,1'-biphenyl]-3-carboxylic acid]
EC50 [1]: ≤ 100 nM
times more potent at hβ3 than at hβ2 [2]: at least 100 times
times more potent at hβ3 than at hβ1 [3]: at least 100 times

O=C(O)c1cncc(-c2cccc(NCCNC[C@H](O)c3cccc(Cl)c3)c2)c1 [Example 24, (R)-5-[3-[[2-[[2-(3-chlorophenyl)-2-hydroxyethyl]amino]ethyl]amino]phenyl]-3-pyridinecarboxylic acid]
EC50 [1]: ≤ 1 nM
times more potent at hβ3 than at hβ2 [2]: at least 100 times
times more potent at hβ3 than at hβ1 [3]: at least 100 times

O=C(O)c1cc(-c2cccc(NCCNC[C@H](O)c3cccc(Cl)c3)c2)cc2c1OCC2 [Example 23]
EC50 [1]: ≤ 100 nM
times more potent at hβ3 than at hβ2 [2]: at least 100 times
times more potent at hβ3 than at hβ1 [3]: at least 100 times

C[C@H](CNc1cccc(-c2ccc(C(=O)O)cc2C(=O)O)c1)NC[C@H](O)c1cccc(Cl)c1 [Example 20, 3'-[[2R-[[2-(3-Chlorophenyl)-2R-hydroxyethyl]amino]propyl]amino]-[1,1'-biphenyl]-2,4-dicarbonylic acid]
EC50 [1]: ≤ 1 nM
times more potent at hβ3 than at hβ2 [2]: at least 100 times
times more potent at hβ3 than at hβ1 [3]: at least 100 times

C[C@H](CNc1cccc(-c2ncccc2C(=O)O)c1)NC[C@H](O)c1cccc(Cl)c1 [Example 22, 2-[3-[[2R-[[2-(3-Chlorophenyl)-2R-hydroxyethyl]amino]propyl]amino]phenyl]-3-pyridinecarboxylic acid]
EC50 [1]: ≤ 100 nM
times more potent at hβ3 than at hβ2 [2]: at least 100 times
times more potent at hβ3 than at hβ1 [3]: at least 100 times

O=C(O)c1cccc(-c2cccc(NCCNC[C@@H](O)COc3ccccc3)c2)c1 [Example 16]
EC50 [1]: ≤ 1 nM
times more potent at hβ3 than at hβ2 [2]: at least 100 times
times more potent at hβ3 than at hβ1 [3]: at least 100 times

O=C(O)c1cccc(-c2cccc(OCCNC[C@H](O)c3cccc(Cl)c3)c2)c1 [Example 17]
EC50 [1]: ≤ 100 nM
times more potent at hβ3 than at hβ2 [2]: at least 100 times
times more potent at hβ3 than at hβ1 [3]: at least 100 times
